The text below walks through data of patent US8183201B2 (priority 2006, dated 2012).

Data set [1] deals with Human prostate adenocarcinoma PC-3 cells. More on the design: species or system SCID mice. Particulars: mouse, in vivo.
The test system of a further data set is TGF-β. The class given is binding.
For data set [2] the following is noted: mouse, in vivo, iv, 30 mg/kg.
The next data set has as its target T1, integrin α5β1 (Homo sapiens, UniProt P05556+P08648).
T1 construct: Human erythroleukemia K562 cells were purchased from ATCC; host or cells: K562
The class given is cell-based.

Another data set concerns VEGF. The class given is binding.
For a further data set, the system named is osteoarthritic mice. The following applies: mouse, in vivo.
Another data set addresses T2, Leptin (Homo sapiens, UniProt P48357).
T2 construct: MDS Pharma services, Taipei, Taiwan (contract assay)
T2 sequence (P48357 22-1165): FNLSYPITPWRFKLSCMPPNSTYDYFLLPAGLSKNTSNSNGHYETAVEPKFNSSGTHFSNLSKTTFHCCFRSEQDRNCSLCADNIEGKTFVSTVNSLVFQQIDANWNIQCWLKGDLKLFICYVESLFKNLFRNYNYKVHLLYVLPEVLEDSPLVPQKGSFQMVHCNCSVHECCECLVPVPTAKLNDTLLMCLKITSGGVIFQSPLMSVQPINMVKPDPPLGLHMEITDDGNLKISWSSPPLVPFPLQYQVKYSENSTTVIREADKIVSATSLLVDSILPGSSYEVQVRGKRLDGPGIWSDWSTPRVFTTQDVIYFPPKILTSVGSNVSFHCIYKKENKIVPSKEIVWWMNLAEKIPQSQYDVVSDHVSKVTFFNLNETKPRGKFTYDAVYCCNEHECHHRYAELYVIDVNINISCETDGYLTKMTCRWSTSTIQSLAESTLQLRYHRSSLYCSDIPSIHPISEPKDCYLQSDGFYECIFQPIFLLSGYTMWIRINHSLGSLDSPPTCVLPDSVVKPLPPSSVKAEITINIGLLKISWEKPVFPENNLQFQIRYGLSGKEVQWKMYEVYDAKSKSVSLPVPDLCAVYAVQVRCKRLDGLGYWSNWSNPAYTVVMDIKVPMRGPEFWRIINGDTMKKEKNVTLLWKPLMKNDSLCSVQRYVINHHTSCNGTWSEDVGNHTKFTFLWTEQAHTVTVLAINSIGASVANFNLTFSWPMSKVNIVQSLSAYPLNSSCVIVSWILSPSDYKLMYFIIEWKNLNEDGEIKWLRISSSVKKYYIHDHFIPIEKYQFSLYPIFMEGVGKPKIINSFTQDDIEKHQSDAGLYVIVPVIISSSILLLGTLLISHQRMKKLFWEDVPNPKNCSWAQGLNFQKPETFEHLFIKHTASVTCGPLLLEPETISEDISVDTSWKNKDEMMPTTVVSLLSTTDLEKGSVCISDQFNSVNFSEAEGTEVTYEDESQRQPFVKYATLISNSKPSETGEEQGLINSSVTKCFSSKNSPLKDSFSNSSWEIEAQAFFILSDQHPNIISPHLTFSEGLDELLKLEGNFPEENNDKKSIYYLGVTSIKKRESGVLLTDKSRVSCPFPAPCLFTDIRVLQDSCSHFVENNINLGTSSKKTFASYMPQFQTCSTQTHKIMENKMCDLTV
The class given is binding.

A further data set concerns osteoarthritis rats. More on the design: species or system Sprague-Dawley rats. Particulars: rat, in vivo.

T1 sequence (P08648 42-894 limits assumed): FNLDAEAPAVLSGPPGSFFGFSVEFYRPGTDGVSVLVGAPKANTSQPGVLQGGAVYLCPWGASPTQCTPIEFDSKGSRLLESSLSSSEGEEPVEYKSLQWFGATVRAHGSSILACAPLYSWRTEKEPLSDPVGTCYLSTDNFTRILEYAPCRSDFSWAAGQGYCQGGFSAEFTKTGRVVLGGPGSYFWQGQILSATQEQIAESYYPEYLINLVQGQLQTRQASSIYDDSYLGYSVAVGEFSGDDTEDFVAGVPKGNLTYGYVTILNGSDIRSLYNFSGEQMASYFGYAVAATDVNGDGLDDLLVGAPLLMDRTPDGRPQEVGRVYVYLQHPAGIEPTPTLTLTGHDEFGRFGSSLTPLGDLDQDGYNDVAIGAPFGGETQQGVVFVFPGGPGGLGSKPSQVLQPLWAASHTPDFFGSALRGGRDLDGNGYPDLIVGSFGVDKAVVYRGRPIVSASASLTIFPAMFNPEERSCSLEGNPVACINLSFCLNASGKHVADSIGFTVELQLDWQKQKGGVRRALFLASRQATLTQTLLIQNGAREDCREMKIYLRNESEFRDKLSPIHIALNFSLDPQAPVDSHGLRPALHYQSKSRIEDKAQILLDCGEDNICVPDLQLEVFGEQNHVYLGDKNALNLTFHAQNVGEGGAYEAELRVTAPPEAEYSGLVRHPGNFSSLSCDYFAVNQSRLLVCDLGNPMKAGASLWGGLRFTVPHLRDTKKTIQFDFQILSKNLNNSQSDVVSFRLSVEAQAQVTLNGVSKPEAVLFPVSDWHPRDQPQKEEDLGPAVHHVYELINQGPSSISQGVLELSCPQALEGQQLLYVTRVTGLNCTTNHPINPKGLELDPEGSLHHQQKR
T1 sequence (P08648 895-1049 partner limits assumed): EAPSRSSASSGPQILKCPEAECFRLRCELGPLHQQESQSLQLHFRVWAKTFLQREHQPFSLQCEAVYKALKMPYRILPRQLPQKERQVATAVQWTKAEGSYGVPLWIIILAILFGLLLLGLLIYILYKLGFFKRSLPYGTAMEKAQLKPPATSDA
T1 sequence (P05556 21-798): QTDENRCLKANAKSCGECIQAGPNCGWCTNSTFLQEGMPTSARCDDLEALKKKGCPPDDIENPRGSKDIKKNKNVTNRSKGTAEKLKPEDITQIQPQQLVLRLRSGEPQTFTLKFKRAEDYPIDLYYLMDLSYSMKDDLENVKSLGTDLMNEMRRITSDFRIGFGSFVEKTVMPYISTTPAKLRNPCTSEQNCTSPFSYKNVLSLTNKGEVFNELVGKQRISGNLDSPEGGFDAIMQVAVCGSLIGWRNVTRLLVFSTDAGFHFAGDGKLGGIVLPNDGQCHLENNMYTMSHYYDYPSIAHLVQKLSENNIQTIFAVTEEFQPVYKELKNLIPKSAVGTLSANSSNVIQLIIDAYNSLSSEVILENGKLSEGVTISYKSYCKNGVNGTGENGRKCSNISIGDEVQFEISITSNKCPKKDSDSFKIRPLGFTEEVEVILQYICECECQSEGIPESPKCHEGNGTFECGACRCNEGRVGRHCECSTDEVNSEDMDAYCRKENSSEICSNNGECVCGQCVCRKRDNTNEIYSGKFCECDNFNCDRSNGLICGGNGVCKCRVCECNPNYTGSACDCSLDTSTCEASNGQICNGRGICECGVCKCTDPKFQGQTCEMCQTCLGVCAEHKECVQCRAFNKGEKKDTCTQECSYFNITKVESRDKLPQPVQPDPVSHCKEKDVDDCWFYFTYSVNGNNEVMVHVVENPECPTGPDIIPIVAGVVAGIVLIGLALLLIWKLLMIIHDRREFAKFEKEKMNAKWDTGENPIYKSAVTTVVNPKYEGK

In the case of “RD: rhodostomin variant having a RGD motif variant ^48PRLDMP^53, SEQ ID NO: 36”, in data set [1], the “PC-3 tumor-induced osteolysis (radiographs)” value was “inhibited osteolysis”, the “inhibition in tumor cell-induced swelling in hind legs” value is 43.8±4.1%, the “tumor-induced decrease in body weight” value was “prevented the loss of body weight” and the “tumor-induced increase in C-terminal telopeptides of type-I collagen” value was “inhibited a tumor-induced increase in C-terminal telopeptides”. In addition, the “tumor-induced increase in the serum calcium concentration (hypercalcemia)” value in data set [1] (1.5 mg/kg) is reported as “inhibited a tumor-induced increase in the serum calcium concentration”. Further, the “tumor growth in legs (in words)” value in data set [1] (sc, 1.5 mg/kg) is reported as “inhibited tumor growth”. Further, the “Inhibition, TGF-β” value in the data set with TGF-β is given as 14%. Also, the survival of mice result in data set [2] was “did not affect the survival of mice”. Also, in the data set with integrin α5β1, the “increase of IC50 in inhibition of integrin α5β1 as compared to Rho” value is > 10 fold. For the same substance, the “Inhibition, VEGF” value in the data set on VEGF was −14%. In addition, in the data set on osteoarthritic mice, the “osteoarthritis-induced elevation of serum cytokines (c-reactive protein, IL-1, IL-6)” value is reported as “markedly inhibited the osteoarthritis-induced elevation of cytokines”. The “Inhibition, Leptin” value in the data set with Leptin is 1%. Also, the “chondrocyte layer destruction in knee joint” value in the data set with osteoarthritis rats is listed as “inhibited the chondrocyte layer destruction”.
